Laboratory results reported in patent US20260184710A1, “CASITAS B-LINEAGE LYMPHOMA PROTOONCOGENE B (CBL-B) DEGRADING COMPOUNDS AND ASSOCIATED METHODS OF USE” (Arvinas Operations, Inc., priority 2022, published 2026).

Biological target: T1, Cbl-b (Homo sapiens, UniProt Q13191)
T1 construct: Cbl-b-HiBit KI Jurkat Cells were purchased from Promega; host or cells: Cbl-b-HiBiT knock-in Jurkat cells
Test: Cbl-b Degradation Method B (Nano-Glo HiBiT lytic detection)
Type: cell-based
Settings: Cbl-b-HiBit KI Jurkat Cells, incubated at least 6-24 hours; for DC50: half maximal degradation, read-out: Cbl-b Degredation Method B IC50; for Dmax: maximum degradation observed, read-out: Cbl-b Degredation Method B Dmax (%)
Outline: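 Cbl-b-HiBiT knock-in Jurkat cells (20,000/well) were treated after ~24 h plating with an 11-point 1:3 series for 6-24 h at 37° C. Remaining Cbl-b measured by Nano-Glo HiBiT lytic luminescence. DC50 and Dmax expressed as % of control.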

T1 sequence (Q13191 whole entry): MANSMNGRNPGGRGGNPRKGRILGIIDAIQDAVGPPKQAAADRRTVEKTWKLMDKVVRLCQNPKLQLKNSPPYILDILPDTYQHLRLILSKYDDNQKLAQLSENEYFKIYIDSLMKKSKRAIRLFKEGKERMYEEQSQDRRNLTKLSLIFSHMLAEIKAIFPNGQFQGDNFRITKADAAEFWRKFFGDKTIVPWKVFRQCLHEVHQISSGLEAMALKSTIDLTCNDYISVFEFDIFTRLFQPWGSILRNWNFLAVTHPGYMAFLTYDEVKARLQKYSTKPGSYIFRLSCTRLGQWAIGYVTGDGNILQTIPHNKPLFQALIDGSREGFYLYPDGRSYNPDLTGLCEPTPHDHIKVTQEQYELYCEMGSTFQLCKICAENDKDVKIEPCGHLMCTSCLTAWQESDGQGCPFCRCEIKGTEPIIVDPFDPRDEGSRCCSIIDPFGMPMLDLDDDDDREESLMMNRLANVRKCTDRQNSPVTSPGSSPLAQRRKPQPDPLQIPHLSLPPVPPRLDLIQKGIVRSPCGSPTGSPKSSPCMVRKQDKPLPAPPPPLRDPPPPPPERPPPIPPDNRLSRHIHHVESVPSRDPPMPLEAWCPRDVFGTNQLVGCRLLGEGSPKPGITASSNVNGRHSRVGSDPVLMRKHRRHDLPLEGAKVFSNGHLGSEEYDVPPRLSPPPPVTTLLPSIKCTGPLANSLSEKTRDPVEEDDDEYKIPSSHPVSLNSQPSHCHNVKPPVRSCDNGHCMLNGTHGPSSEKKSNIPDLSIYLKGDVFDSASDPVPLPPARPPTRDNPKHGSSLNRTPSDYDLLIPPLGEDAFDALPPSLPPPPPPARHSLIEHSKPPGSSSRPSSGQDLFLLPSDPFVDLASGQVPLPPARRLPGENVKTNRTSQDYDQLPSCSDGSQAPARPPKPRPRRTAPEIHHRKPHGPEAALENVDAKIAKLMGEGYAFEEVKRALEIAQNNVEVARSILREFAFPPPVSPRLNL

Compound | DC50 [nM] | Dmax [%]
COc1cc(N2CCN(CC3CCN(Cc4cc5c(c(C(F)(F)F)c4)CN(c4cccc(C6(Cc7nncn7C)COC6)c4)C5=O)CC3)CC2)cc2c1C(=O)N(C1CCC(=O)NC1=O)C2=O (stereo not shown) [Example 51, 2-(2,6-dioxopiperidin-3-yl)-4-methoxy-6-{4-[(1-{[2-(3-{3-[(4-methyl-4H-1,2,4-triazol-3-yl)methyl]oxetan-3-yl}phenyl)-3-oxo-7-(trifluoromethyl)-2,3-dihydro-1H-isoindol-5-yl]methyl}piperidin-4-yl)methyl]piperazin-1-yl}-2,3-dihydro-1H-isoindole-1,3-dione] | > 500 | 
Cc1cc(N2CCC(CN3CCC4(CC3)CN(c3cc(C(F)(F)F)c5cn(-c6cccc([C@]7(Cc8nncn8C)C[C@@H](C#N)C7)c6)nc5c3)C4)CC2)c(F)c2c1C(=O)N(C1CCC(=O)NC1=O)C2 (stereo partly shown) [Example 154, 3-[3-[6-[7-[[1-[2-(2,6-dioxo-3-piperidyl)-4-fluoro-7-methyl-1-oxo-isoindolin-5-yl]-4-piperidyl]methyl]-2,7-diazaspiro[3.5]nonan-2-yl]-4-(trifluoromethyl)indazol-2-yl]phenyl]-3-[(4-methyl-1,2,4-triazol-3-yl)methyl]cyclobutanecarbonitrile] | > 500 | 
Cn1cnnc1C[C@]1(c2cccc(N3Cc4c(cc(CN5CCN(C[C@H]6CC[C@H](OC7CCN(c8ccc9c(c8F)CN(C8CCC(=O)NC8=O)C9=O)CC7)CC6)CC5)cc4C(F)(F)F)C3=O)c2)C[C@@H](C#N)C1 (stereo partly shown) [Example 14, (1s, 3s)-3-[(4-methyl-4H-1,2,4-triazol-3-yl)methyl]-3-(3-{1-oxo-6-[(4-{[(1r, 4r)-4-({1-[2-(2,6-dioxopiperidin-3-yl)-4-fluoro-1-oxo-2,3-dihydro-1H-isoindol-5-yl]piperidin-4-yl}oxy)cyclohexyl]methyl}piperazin-1-yl)methyl]-4-(trifluoromethyl)-2,3-dihydro-1H-isoindol-2-yl}phenyl)cyclobutane-1-carbonitrile] | < 5 | 35 to 70

Now from value to molecule:

DC50 [nM] | Dmax [%] | Compound
> 500 |  | Cn1cnnc1C[C@]1(c2cccc(N3Cc4c(cc(CN5CCN(C[C@H]6CC[C@H](OC7CCN(c8ccc(C9CCC(=O)NC9=O)c(F)c8)CC7)CC6)CC5)cc4C(F)(F)F)C3=O)c2)C[C@H](C#N)C1 (stereo partly shown) [Example 201, (1r,3r)-3-[(4-methyl-4H-1,2,4-triazol-3-yl)methyl]-3-(3-{1-oxo-6-[(4-{[(1r,4r)-4-({1-[4-(2,6-dioxopiperidin-3-yl)-3-fluorophenyl]piperidin-4-yl}oxy)cyclohexyl]methyl}piperazin-1-yl)methyl]-4-(trifluoromethyl)-2,3-dihydro-1H-isoindol-2-yl}phenyl)cyclobutane-1-carbonitrile]
5 to 50 | > 70 | Cc1cc(N2CCC(O[C@H]3CC[C@H](CN4CCN(Cc5cc6c(c(C(F)(F)F)c5)CN(c5cccc(C7(Cc8nncn8C)CC(C#N)C7)c5)C6=O)C(C)(C)C4)CC3)CC2)c(F)c2c1C(=O)N(C1CCC(=O)NC1=O)C2 (stereo partly shown) [Example 251, (1r**,3r**)-3-(3-{6-[(2,2-dimethyl-4-{[(1r*,4r*)-4-({1-[2-(2,6-dioxopiperidin-3-yl)-4-fluoro-7-methyl-1-oxo-2,3-dihydro-1H-isoindol-5-yl]piperidin-4-yl}oxy)cyclohexyl]methyl}piperazin-1-yl)methyl]-1-oxo-4-(trifluoromethyl)-2,3-dihydro-1H-isoindol-2-yl}phenyl)-3-[(4-methyl-4H-1,2,4-triazol-3-yl)methyl]cyclobutane-1-carbonitrile]
